# According to PMC11726677, “Eradication of Therapy-Resistant Cancer Stem Cells by Novel Telmisartan Derivatives” (Journal of Medicinal Chemistry, 2024):
# Experiments:
# K562-R cells [1] = assay: Metabolic activity of K562-R cells, compounds alone (modified MTT assay); format: cell-based, human; details: 72 h; for viability at 10 µM: Homo sapiens, K-562R, read-out: metabolic activity of K562-R cells, compound alone; for metabolic activity of K562-R cells, compound alone: 10 μM, without imatinib, vehicle control = 100%
# Method: (§1) The potential reduction in cell viability was determined using the modified MTT assay.
# First, the compounds (10 μM) were applied alone to evaluate their effects per se.
# (§2) COS-7 (2 × 10^3 cells per well), IGROV-1 SP (2.5 × 10^3 cells per well), A2780 V SP (1.5 × 10^3 cells per well), PC3-DR (4 × 10^3 cells per well), and DU145-DR (3 × 10^3 cells per well) cells were seeded in 96-well plates in triplicates and after 24 h, the compounds were added at the respective concentrations. K562-R and K562 cells (2 × 10^4 cells per well), were treated with the compounds 2 h after seeding. […] A modified MTT colorimetric assay (EZ4U kit, Biomedica) was used to determine the metabolic activity of the tested cells, according to the manufacturer’s instructions. Absorbance was measured and the optical density of the respective FCS-containing medium and of the substrate was subtracted to exclude nonspecific staining. Metabolic activity in the absence of the compounds (CTR, DMSO) was set to 100% as reference.
# [2] = molecular target: ABCB1 transporter in K562-R cells (Homo sapiens, UniProt P08183); assay: Side population (SP) analysis, DCV staining, flow cytometry; details: 10 μM
# Chain of ABCB1 transporter in K562-R cells (P08183 whole entry): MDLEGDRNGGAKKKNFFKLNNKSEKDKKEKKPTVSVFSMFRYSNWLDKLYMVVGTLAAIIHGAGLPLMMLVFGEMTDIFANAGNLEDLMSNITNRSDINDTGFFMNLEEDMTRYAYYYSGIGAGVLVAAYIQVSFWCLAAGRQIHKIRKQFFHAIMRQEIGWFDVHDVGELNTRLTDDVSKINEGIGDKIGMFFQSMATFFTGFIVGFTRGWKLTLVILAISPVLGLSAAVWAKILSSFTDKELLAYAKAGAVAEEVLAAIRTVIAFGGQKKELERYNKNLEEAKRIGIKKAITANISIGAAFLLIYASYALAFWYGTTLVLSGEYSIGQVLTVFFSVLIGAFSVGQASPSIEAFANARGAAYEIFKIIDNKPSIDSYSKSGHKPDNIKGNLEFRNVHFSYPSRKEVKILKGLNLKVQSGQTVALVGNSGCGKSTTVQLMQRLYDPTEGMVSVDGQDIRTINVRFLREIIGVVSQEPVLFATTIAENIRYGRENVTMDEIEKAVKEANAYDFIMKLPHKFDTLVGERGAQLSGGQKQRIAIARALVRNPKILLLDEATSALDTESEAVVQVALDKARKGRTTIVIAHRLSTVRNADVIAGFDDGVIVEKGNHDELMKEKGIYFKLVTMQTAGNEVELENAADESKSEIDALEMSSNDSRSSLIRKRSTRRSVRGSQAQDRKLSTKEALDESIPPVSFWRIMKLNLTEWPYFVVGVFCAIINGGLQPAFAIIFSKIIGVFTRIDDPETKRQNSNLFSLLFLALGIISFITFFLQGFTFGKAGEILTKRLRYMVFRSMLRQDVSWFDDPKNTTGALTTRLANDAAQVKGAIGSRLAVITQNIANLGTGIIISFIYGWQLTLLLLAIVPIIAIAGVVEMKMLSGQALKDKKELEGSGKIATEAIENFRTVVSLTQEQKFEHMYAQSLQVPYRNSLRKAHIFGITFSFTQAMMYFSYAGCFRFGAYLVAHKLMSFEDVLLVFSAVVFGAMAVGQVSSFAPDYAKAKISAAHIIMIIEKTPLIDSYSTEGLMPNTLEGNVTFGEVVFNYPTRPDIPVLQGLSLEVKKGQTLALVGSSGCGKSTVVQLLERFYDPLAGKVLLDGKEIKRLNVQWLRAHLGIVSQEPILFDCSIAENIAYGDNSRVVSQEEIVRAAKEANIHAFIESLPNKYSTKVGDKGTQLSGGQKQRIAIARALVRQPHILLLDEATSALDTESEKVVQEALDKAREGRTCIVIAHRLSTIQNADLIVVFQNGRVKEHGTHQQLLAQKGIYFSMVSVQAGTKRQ
# Method: SP analyses were performed as previously described[45] on a LSRFortessa flow cytometer (BD Biosciences, Vienna, Austria). Briefly, 1 × 10^6 cells/mL were stained with 10 μM Vybrant DyeCycleTM Violet (DCV; Molecular Probes, Eugene, OR) in the presence or absence of the investigated compounds for 90 min at 37 °C. […] Subsequently, the cells were washed and immediately analyzed using flow cytometry. The FlowJo 9.6 software was used for data analyses (Tree Star Software, Ashland, CA).
# STAT5 = assay: Jess Simple Western immunoassay of STAT5/pSTAT5 in K562-R cells; format: cell-based, human
# Method: In the next step, the effects of the compounds (4 μM) on STAT5 in K562-R cells were examined.
# (§3) Protein extracts were prepared as previously described.[44] Protein expression was determined using the capillary-based Jess Simple Western detection system (ProteinSimple, BioTechne) according to the manufacturer’s instructions at default settings. […] Horseradish peroxidase (HRP)-conjugated secondary antirabbit antibody, which was included in the Jess Detection Module kit, was used. Data analysis was conducted using Compass for Simple Western 4.0 software (ProteinSimple, BioTechne).
# ABCB1 = assay: Jess Simple Western immunoassay of ABCB1 expression in K562-R cells; format: cell-based, human; details: 4 μM, 72 h
# Method: as §3
# K562-R cells [3] = assay: Chemosensitizing: metabolic activity of K562-R cells cotreated with imatinib (modified MTT assay); format: cell-based, human; details: 72 h; for chemosensitizing effect, concentration-dependent analysis: K562-R, + imatinib 1 μM, 0.5–8 μM (transporter inhibitors 10 to 0.5 μM)
# Method: as §1
# conc. 10 to 0.5 μM) over 72 h (Figure 3D).
# as §2
# K562 cells = assay: Metabolic activity of TKI-sensitive K562 cells (MTT assay); format: cell-based, human; details: 10 μM, 72 h, alone
# Method: Selectivity for therapy-resistant K562-R cells can be assessed by comparing the results with TKI-sensitive K562 cells.
# as §2
effect on SP phenotype / ABCB1 activity [2],Structure (SMILES),viability at 10 µM (K562-R cells [1]),"metabolic activity of K562-R cells, combination with imatinib (K562-R cells [3]; compound 8 μM + imatinib 1 μM)","metabolic activity of K562-R cells, combination with imatinib (K562-R cells [3]; compound 10 μM + imatinib 1 μM)",metabolic activity of K562 cells (K562 cells),other results
had no significant impact on the SP,"CCCc1nc2ccccc2n1Cc1ccccc1C(=O)OC [1b, Methyl 2-((2-propyl-1H-benzo[d]imidazole-1-yl)methyl)benzoate]",< 70%,44–57%,34–58%,–,"phosphorylation of STAT5 (STAT5; 4 μM + imatinib 1 μM, 6 h): hardly triggered any change in the expression of pSTAT5; phosphorylation of STAT5 (STAT5; 4 μM alone, 72 h): prevented the activation of STAT5; ABCB1 protein expression (ABCB1): none of the compounds abrogated the ABCB1 protein expression"
–,"CCCc1nc2ccccc2n1Cc1ccccc1C(N)=O [1c, 2-((2-Propyl-1H-benzo[d]imidazole-1-yl)methyl)benzamide]",75 to 80%,–,could not be increased,–,–
had no significant impact on the SP,"CCCc1nc2ccccc2n1Cc1cccc(C(=O)OC)c1 [2b, Methyl 3-((2-propyl-1H-benzo[d]imidazole-1-yl)methyl)benzoate]",< 70%,44–57%,34–58%,–,–
–,"CCCc1nc2ccccc2n1Cc1cccc(C(N)=O)c1 [2c, 3-((2-Propyl-1H-benzo[d]imidazole-1-yl)methyl)benzamide]",–,–,could not be increased,–,–
had no significant impact on the SP,"CCCc1nc2ccccc2n1Cc1ccc(C(=O)OC)cc1 [3b, Methyl 4-((2-propyl-1H-benzo[d]imidazole-1-yl)methyl)benzoate]",–,44–57%,34–58%,–,–
–,"CCCc1nc2ccccc2n1Cc1ccc(C(N)=O)cc1 [3c, 4-((2-Propyl-1H-benzo[d]imidazole-1-yl)methyl)benzamide]",–,–,could not be increased,–,–
–,"CCCc1nc2ccccc2n1Cc1ccc(-c2cccc(C(=O)OC)c2)cc1 [5b, Methyl 4′-((2-propyl-1H-benzo[d]imidazole-1-yl)methyl)-[1,1′-biphenyl]-3-carboxylate]",< 70%,–,34–58%,≥ 65%,–
–,"COc1cc2c(cc1OC)CN(CCc1ccc(NC(=O)c3cccc4c(=O)c5cccc(OC)c5[nH]c34)cc1)CC2 [elacridar, reference compound]",–,–,–,did not affect the viability,"metabolic activity of K562-R cells, compound alone (K562-R cells [1]): did not affect the viability; phosphorylation of STAT5 (STAT5; 4 μM + imatinib 1 μM, 6 h): hardly triggered any change in the expression of pSTAT5; phosphorylation of STAT5 (STAT5; 4 μM alone, 72 h): did not influence the phosphorylation of STAT5; ABCB1 protein expression (ABCB1): none of the compounds abrogated the ABCB1 protein expression; chemosensitizing effect, concentration-dependent analysis (K562-R cells [3]): comparable to telmi-ester (7b)"
–,"C/C=C/C[C@@H](C)C(=O)[C@H]1C(=O)N[C@@H](C(C)C)C(=O)N(C)CC(=O)N(C)[C@@H](CC(C)C)C(=O)N[C@@H](C(C)C)C(=O)N(C)[C@@H](CC(C)C)C(=O)N[C@@H](C)C(=O)N[C@H](C)C(=O)N(C)[C@@H](CC(C)C)C(=O)N(C)[C@@H](CC(C)C)C(=O)N(C)[C@@H](C(C)C)C(=O)N1C [valspodar, reference compound]",–,–,–,did not affect the viability,"metabolic activity of K562-R cells, compound alone (K562-R cells [1]): did not affect the viability; chemosensitizing effect, concentration-dependent analysis (K562-R cells [3]): sensitized the cells similarly to the derivatives 4b, 5c, 6b, 6c"
